#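 Results reflect a 48-hour exposure of cells in 96-well plates to compound at five concentrations. The concentration for 50% growth inhibition is given as GI50.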 The source made the active and inactive calls. No stated cut-off is given here; in the data, active = GI50 up to about 1.1 µM and inactive = higher.
# What was measured:
# Assay in all cases: inhibition of tumour cell growth, NCI panel, 48 h
# A549 = system: A549
# CAKI-1 = system: CAKI-1
# DU-145 = system: DU-145
# HCT-116 = system: HCT-116
# Hs-578T = system: Hs-578T
# K562 = system: K562
# MDA-MB-435 = system: MDA-MB-435
# OVCAR-3 = system: OVCAR-3
# OVCAR-4 = system: OVCAR-4
# OVCAR-5 = system: OVCAR-5
# PC-3 = system: PC-3
# SF-295 = system: SF-295
# SF-539 = system: SF-539
# SK-MEL-28 = system: SK-MEL-28
# SK-OV-3 = system: SK-OV-3
# SW-620 = system: SW-620
# TK-10 = system: TK-10
# LOX IMVI = system: LOX IMVI
SMILES,GI50 (A549),GI50 (CAKI-1),GI50 (DU-145),GI50 (HCT-116),GI50 (Hs-578T),GI50 (K562),GI50 (MDA-MB-435),GI50 (OVCAR-3),GI50 (OVCAR-4),GI50 (OVCAR-5),GI50 (PC-3),GI50 (SF-295),GI50 (SF-539),GI50 (SK-MEL-28),GI50 (SK-OV-3),GI50 (SW-620),GI50 (TK-10),GI50 (LOX IMVI)
O=C(Nc1cccc(Cl)c1)Nn1cnnc1,> 100 µM (inactive),> 100 µM (inactive),> 100 µM (inactive),> 100 µM (inactive),> 100 µM (inactive),> 100 µM (inactive),> 100 µM (inactive),> 100 µM (inactive),> 100 µM (inactive),0.339 µM (active),> 100 µM (inactive),> 100 µM (inactive),> 100 µM (inactive),> 100 µM (inactive),> 100 µM (inactive),> 100 µM (inactive),> 100 µM (inactive),–
C=CCCCCCCC#CCCCCCCCCCC[C@@H]1C(=O)O[C@H](C)[C@@H]1O.CCCCCCCCC#CCCCCCCCCCC[C@@H]1C(=O)O[C@H](C)[C@@H]1O,14.1 µM (inactive),15.5 µM (inactive),–,16.2 µM (inactive),–,6.19 µM (inactive),–,20.2 µM (inactive),16.4 µM (inactive),59.2 µM (inactive),13.1 µM (inactive),18.8 µM (inactive),20.8 µM (inactive),24 µM (inactive),36.6 µM (inactive),15.2 µM (inactive),15.7 µM (inactive),12.9 µM (inactive)
Cc1nc(Cc2n[nH]c(C)n2)n[nH]1,> 100 µM (inactive),–,> 100 µM (inactive),> 100 µM (inactive),–,> 100 µM (inactive),> 100 µM (inactive),> 100 µM (inactive),> 100 µM (inactive),> 100 µM (inactive),> 100 µM (inactive),> 100 µM (inactive),> 100 µM (inactive),–,> 100 µM (inactive),> 100 µM (inactive),> 100 µM (inactive),> 100 µM (inactive)
COc1cc(C(SCc2ccccc2)SCc2ccccc2)ccc1O,–,> 10 µM (inactive),> 10 µM (inactive),7.41 µM (inactive),6.12 µM (inactive),> 10 µM (inactive),–,> 10 µM (inactive),–,–,> 10 µM (inactive),> 10 µM (inactive),> 10 µM (inactive),> 10 µM (inactive),4.22 µM (inactive),> 10 µM (inactive),> 10 µM (inactive),> 10 µM (inactive)
O=[N+]([O-])c1ccc2nc(O)n[n+]([O-])c2c1,> 100 µM (inactive),–,> 100 µM (inactive),> 100 µM (inactive),> 100 µM (inactive),> 100 µM (inactive),> 100 µM (inactive),> 100 µM (inactive),> 100 µM (inactive),> 100 µM (inactive),> 100 µM (inactive),> 100 µM (inactive),> 100 µM (inactive),> 100 µM (inactive),> 100 µM (inactive),> 100 µM (inactive),> 100 µM (inactive),> 100 µM (inactive)
C/C(=C\C(=O)O)C(=O)N(C)c1ccccc1I,> 100 µM (inactive),> 100 µM (inactive),> 100 µM (inactive),> 100 µM (inactive),> 100 µM (inactive),> 100 µM (inactive),> 100 µM (inactive),> 100 µM (inactive),> 100 µM (inactive),> 100 µM (inactive),> 100 µM (inactive),> 100 µM (inactive),–,> 100 µM (inactive),> 100 µM (inactive),> 100 µM (inactive),–,> 100 µM (inactive)
CCC1CC2CN3CCc4c([nH]c5c(-c6c(OC)ccc7c8c([nH]c67)[C@]6(C(=O)OC)CC7CC(CC)C6N(CC8)C7)c(O)ccc45)[C@](C(=O)OC)(C2)C13 (stereo partly specified),17.6 µM (inactive),12.6 µM (inactive),14.9 µM (inactive),13 µM (inactive),–,6.19 µM (inactive),11.1 µM (inactive),14.6 µM (inactive),–,16.6 µM (inactive),13.6 µM (inactive),17.4 µM (inactive),19.5 µM (inactive),15.8 µM (inactive),25.6 µM (inactive),12.4 µM (inactive),15.2 µM (inactive),14.8 µM (inactive)
CCCCCCCCCCN(CCCCCCCCCC)C(=O)COc1c2cc(C(C)(C)C)cc1Cc1cc(C(C)(C)C)cc(c1OCC(=O)N(CCCCCCCCCC)CCCCCCCCCC)Cc1cc(C(C)(C)C)cc(c1OCC(=O)N(CCCCCCCCCC)CCCCCCCCCC)Cc1cc(C(C)(C)C)cc(c1OCC(=O)N(CCCCCCCCCC)CCCCCCCCCC)C2,16 µM (inactive),–,17.8 µM (inactive),2.54 µM (inactive),–,1.9 µM (inactive),12.9 µM (inactive),15.7 µM (inactive),10.4 µM (inactive),13.3 µM (inactive),9.93 µM (inactive),10.1 µM (inactive),4.34 µM (inactive),11.3 µM (inactive),14.4 µM (inactive),1.93 µM (inactive),18.8 µM (inactive),10.2 µM (inactive)
